The results in this text go back to patent publication US4308181A, “Polypeptide compositions” (American Home Products Corporation, priority 1980, dated 1981).

Residues, ends and D or L forms follow the SMILES beside them.

The subject of this test is T lymphocytes isolated from spleens of male CBA/J or NZB mice. The experiment in a line: T lymphocyte proliferation, 3H-thymidine uptake. It counts as cell-based. To be noted: 48 h culture. As for the experimental part: The activity of the compounds of the Examples is determined according to the following procedure:
T lymphocytes are isolated from spleens of male CBA/J or NZB mice. Cell homogenates are prepared in Hank's balanced salt solution (HBSS). After removal of larger particles and repeated washing of the cells in HBSS they are suspended in minimum essential medium (MEM) and passed through a glass wool column to remove macrophages. The cells are then incubated on a nylon wool column at 37° C., 95% air, 5% CO2, for 45 minutes. The non-adherant T lymphocytes are then eluted from the column, counted, and adjusted to 20×10^6 cells/ml. 50 μl. of cells are cultured (37° C., 95% air, 5% CO2) with compound, for 48 hours before addition of 0.5 μCi. of 3H-thymidine for the last 16 hours of culture. The total volume of the culture system is 200 μ l. The cells are then harvested on a multiple automatic sample harvester (MashII), the glass fiber filter disks placed in 10 ml. of xylene base scintillation fluid, and counted for 1 minute in a liquid scintillation counter. Results are reported as CPM+SE. Comparisons are made between counts obtained with control cultures and cultures containing compound and a determination made as to whether the compounds are active at the dosage tested.

Where [1] appears, read: 0.75 ng/culture, run with control 19,275 ± 1298.
Setting [2] is: 1.5 ng/culture, run with control 9,876 ± 951.
Where [3] appears, read: 1.5 ng/culture, run with control 19,275 ± 1298.
Setting [4] is: 6.0 ng/culture, run with control 9,876 ± 951.
Setting [5] is: 6.0 ng/culture, run with control 19,275 ± 1298.
Setting [6] is: 25 ng/culture, run with control 9,876 ± 951.
[7] abbreviates: 100 ng/culture, run with control 9,876 ± 951.

In the case of `CC(=O)NCC(=O)N[C@@H](CO)C(=O)N[C@@H](Cc1c[nH]cn1)C(=O)N[C@@H](CC(C)C)C(N)=O` [Ac--Gly--Ser--His--Leu--NH2, N-acetylglycyl-L-seryl-L-histidyl-L-leucinaminde, acetate] (Ac-GSHL-NH2), the “H-Thymidine Uptake CPM + S.E.” value by setting is: under setting [1], 41,019 ± 6047 CPM; under setting [2], 15,028 ± 1178 CPM; under setting [3], 48,033 ± 5499 CPM; under setting [4], 19,423 ± 1031 CPM; under setting [5], 38,254 ± 7188 CPM; under setting [6], 19,433 ± 3092 CPM. The “H-Thymidine Uptake CPM + S.E.” value under setting [7] was 20,409 ± 4081 CPM.
Regarding `CC(=O)N[C@@H](CO)C(=O)N[C@@H](Cc1c[nH]cn1)C(=O)N[C@@H](CC(C)C)C(=O)N[C@H](C(N)=O)C(C)C.CC(=O)O` [Ac--Ser--His--Leu--Val--NH2, N-acetylseryl-L-histidyl-L-leucyl-L-valinamide, acetate] (Ac-SHLV-NH2), the “H-Thymidine Uptake CPM + S.E.” value is on record as 26,137 ± 6158 CPM under setting [1]; 30,925 ± 3256 CPM under setting [2]; 32,646 ± 2284 CPM under setting [3]; 26,741 ± 3049 CPM under setting [4]; 30,425 ± 8896 CPM under setting [5]; 28,206 ± 2233 CPM under setting [6]. Moreover, the “H-Thymidine Uptake CPM + S.E.” value is 32,278 ± 5373 CPM (25 ng/culture, run with control 19,275 ± 1298) and 20,758 ± 3027 CPM under setting [7].
